From publication PMC11052077, “Discovery of Dolutegravir Derivative against Liver Cancer via Inducing Autophagy and DNA Damage” (Molecules, 2024)

Key:
[1] = system: HRM cells (human renal mesangial cells); experiment: in vitro; type: cell-based; conditions: 20 µM
Procedure: This study aimed to assess the anti-proliferative activity of dolutegravir-1,2,3-triazole derivatives on hepatocellular carcinoma cell lines, Huh7 and hepG2. A comprehensive CCK8 assay was employed to evaluate the impact of these compounds on cell viability, with cells treated at a concentration of 20 μM for 48 h. HRM cells, a normal cell line, were included as a control for comparative analysis. […]
CCK8 assay was used to measure cell viability. Cells with a density of 1 × 10^4 cells/well were seeded on 96-well plates. After adhesion, cells were treated with different diluted compounds or vehicle control DMSO and continued to be cultured for 48 h or 72 h, respectively. Then, CCK8 reagent was added for one hour incubation at 37 °C with 5% CO2. Absorbance was measured using a Microplate spectrophotometer (Thermo, Waltham, MA, USA) at 450 nm. The ratio of cell viability of control was taken as 100%. […] Then, IC50 of compounds were investigated using the prism statistical software 7.0.

γ-H2AX in HepG2 cells = experiment: γ-H2AX immunofluorescence, HepG2; type: cell-based, human; conditions: HepG2, 72 h
Procedure: The phosphorylation of H2AX serves as a highly specific and sensitive molecular marker for DNA damage. Through Western blotting, we have confirmed that compounds 5e and 5p induce DNA damage in Huh7 and HepG2 cells. To further substantiate the inhibitory effect of compounds 5e and 5p on Huh7 cells, immunofluorescence was employed to assess their correlation with γ-H2AX.
The HepG2 cells (1 × 10^6) were plated in laser confocal dishes (Nest, Wuxi, China), before Compound 5e and 5p were treated for 72 h. Then, 4% paraformaldehyde was added to each laser confocal dishes for 20 min, after rinsing with PBS. The Triton X-100 was used to penetrate the cells for 20 min. Before the cells were incubated with p-H2AX (Cell Signaling Technology, Danvers, MA, USA) at 1:800 dilution at 4 °C overnight, goat serum was used to block for 30 min. Subsequently, the HepG2 were rinsed with PBS and incubated with Alexa Fluor 488 (Proteintech, Wuhan, China) at a 1:1000 dilution in the dark at room temperature for 1 h. DAPI was added to each laser to stain the cell nucleus for 5 min. Then, the cells were observed under a laser confocal microscope (Nikon, Tokyo, Japan), after rinsing with PBS.

LC3 = experiment: Western blot, LC3; type: cell-based, human; conditions: 2, 4, 8 μM, 48 h, Huh7, western blot
Procedure: To elucidate the impact of compounds 5e and 5p on the regulation of cell proliferation, we examined the expression levels of key proteins involved in cell growth processes, encompassing autophagy, apoptosis, cell cycle, and DNA damage (Figure 7).
Protein expression levels were measured by western blot. Huh7 cells were cultured in 12-well plates and different concentrations (0, 2, 4, 8 μM) of 5e and 5p were added for 48 h. Proteins were extracted from whole cells using radio-immunoprecipitation assay (RIPA) buffer containing a protease/phosphatase inhibitor cocktail (CST). Then, 10–15% sodium dodecyl sulfate polyacrylamide gel electrophoresis and nitrocellulose membranes (Millipore) were employed to separate and collect proteins. Antibodies used include LC3 (3868s, CST), Caspase3 (9662, CST), cyclin D (2922s, CST), cyclin E (20808s, CST), γH2AX (9718s, CST), β-Catenin (9562s, CST), and β-actin (4967s, CST).

Huh7 cells = experiment: Cellular ROS measurement (DCFH-DA); type: cell-based, human; conditions: 5, 10 and 20 μM, 24 h, Huh7, DCFH-DA staining
Procedure: Reactive oxygen species (ROS) play a crucial role in inducing cell death and inhibiting cell growth and proliferation. To investigate the impact of compounds 5e and 5p on ROS generation, various cancer cells were treated with 5e or 5p for 24 h. Subsequently, cells were stained with DCFDA [26], and ROS levels were visualized using a fluorescent microscope (Thermo, Beijing, China).
Huh7 cells were cultured in 96-well plates in a density of 5 × 10^3 cells/well. Different concentrations (0, 5, 10 and 20 μM) of 5e or 5p were added to cells, respectively, for 24 h. After treatment, cells were stimulated with 10 μM DCFH-DA for 30 min in 37 °C and then observed and photographed using the fluorescent microscope.

Question: Which “Cell Viability (100%), 20 μM, 48 h, HRM” value [1] does the source give for `COc1c2n(cc(C(=O)Nc3cccc(-c4cn(-c5cccc(C(F)(F)F)c5)nn4)c3)c1=O)CC1OCCC(C)N1C2=O` (stereo not shown) [Compound 5p] here?
Answer: Its value is 16.33%.

Question: And the “γ-H2AX expression by immunofluorescence” value (γ-H2AX in HepG2 cells)?
Answer: Its value is “increased the expression of γ-H2AX”.

Question: What about the LC3 protein expression (LC3) of the same compound?
Answer: The LC3 protein expression was “significant increase in expression”.

Question: What about the ROS generation (Huh7 cells) of the same compound?
Answer: Its ROS generation is “significant increase in ROS generation”.
